Data taken from EPA's ToxValDB 9.5.
Several values for one entry are separate records, joined by “and”; a condition that tells them apart may be missing. Identical values can stand only once.

What was measured:
[1] = system: Dog, Rat; conditions: subchronic; duration: 13 weeks; oral; diet; Kidney: Effects + Liver: Effects
[2] = system: Canidae; conditions: subchronic; duration: 13 weeks; oral; diet; M/F; Dog Other; Male reproductive toxicity and other effects (including decreased body weight gain), increased liver and kidney weights
[3] = system: Rattus norvegicus; conditions: subchronic, oral, M/F
[4] = system: Mus musculus; assay: LD100; higher = less toxic; conditions: acute; oral; TAC:SWfBr
[5] = system: Mus musculus; conditions: subchronic; duration: 13 weeks; oral; gavage; B6C3F1
[6] = system: Rattus norvegicus; conditions: oral
[7] = system: Rattus norvegicus; conditions: subchronic, oral, gavage, M/F
[8] = system: Rattus norvegicus; assay: LC0; higher = less toxic; conditions: acute; inhalation
[9] = system: Mus musculus; conditions: developmental; oral; diet; M/F; Swiss-Webster; Nervous
[10] = system: Mus musculus; conditions: oral
[11] = system: Dog, Mouse, Rat; conditions: oral; Effects on the reproductive system and developing nervous system
[12] = system: Rattus norvegicus; conditions: developmental; oral; drinking water; Renal damage (hydronephrosis, urethral dilatation, obstruction and/or presence of calculi) and reduced grip strength, but not cognitive …
[13] = system: Rattus norvegicus; conditions: Hershberger, duration: 10 days, oral, gavage, active + Antiandrogenic + anti-androgenic + significant increase in liver wt at 100 and greater / significant decrease in AST and increase …
[14] = system: Rattus norvegicus; conditions: developmental, oral, gavage, M, Wistar, generation: F1
[15] = system: Mus musculus; conditions: repeat dose other; oral
[16] = system: Chalcophaps sp.; conditions: oral
[17] = system: Rattus norvegicus; conditions: M/F
[18] = system: Cavia porcellus; conditions: chronic; oral; M/F; Guinea Pig; increased relative liver weight
[19] = system: Rattus norvegicus; assay: LD5; higher = less toxic; conditions: developmental, oral, drinking water, M/F, Wistar
[20] = system: Mus musculus; conditions: chronic, duration: 92 days, inhalation, intermittent
[21] = system: Mus musculus; assay: FEL; higher = less toxic; conditions: subchronic; inhalation; M/F; mortality
[22] = system: Mus musculus; conditions: subchronic; inhalation; M/F; mortality
[23] = system: Bacteria; conditions: In vitro / microbiological; Growth inhibition
[24] = system: Cricetulus sp.; conditions: subchronic; duration: 13 weeks; inhalation; intermittent; Hamster; Nasal cavity: Olfactory degeneration
[25] = system: Rattus norvegicus; conditions: subchronic; duration: 13 weeks; oral; gavage; Liver: Hepatotoxicity
[26] = system: Mouse, Rat; conditions: subchronic; duration: 90 days; inhalation; intermittent; Adrenal: Lesions + Blood: Hematological effects + Kidney: Lesions + Liver: Lesions
[27] = system: Cavia porcellus; conditions: subchronic; duration: 90 days; oral; M/F; Guinea Pig; ototoxicity
[28] = duration: 90 days, diet, increased liver and kidney weight
[29] = subchronic, duration: 13 weeks, gavage, Fischer 344

Structure (SMILES): Cc1cc(Cl)ccc1OCCCC(=O)O [Thitrol]
- NOEL [1]: 12 mg/kg-day
- LEL [2]: 40 mg/kg-day
- NOEL [2]: 12 mg/kg-day
- LEL [3, 28]: 40 mg/kg-day
- NOEL [3, 28]: 12 mg/kg-day

Structure (SMILES): C[N+](C)(C)Cc1ccccc1.[Cl-] [Benzyltrimethylammonium chloride]
- LD100 [4]: 1600 mg/kg
- NOAEL [5]: 25 mg/kg-day
- LD50 ([6]; acute, gavage, Fischer 344): 180 mg/kg
- NOAEL ([6]; short-term, duration: 28 days, Crj:CD): 30 mg/kg-day
- NOAEL ([6]; short-term, duration: 28 days, F, Crj:CD): 60 mg/kg-day
- NOAEL [6, 29]: 25 mg/kg-day
- NOEL ([7]; Fischer 344, Deaths + Clinical Observation: Nasal and eye discharge Lacrimation Salivation Tremors + Functional Observational Battery: Lacrimation or …): < 12.5 mg/kg-day

Structure (SMILES): O=C(O)CCl [Chloroacetic acid]
- NOAEL [5]: 100 mg/kg-day
- NOAEL ([6]; chronic, duration: 208 days, diet, M, Wistar): 25 mg/kg-day
- NOAEL [6, 29]: 30 mg/kg-day
- LC0 [8]: 0.005 mg/L
- NOEL ([7]; duration: 13 weeks, Fischer 344, Deaths + Body Weight Changes: decrease + Blood Chemistry: Ch E decrease, Ca decrease, TP decrease + Absolute Organ Weight: Heart decrease, …): < 30 mg/kg-day

Structure (SMILES): [Al] [Aluminum]
- LOAEL (mg Al/kg-day) [9]: 100
- LOAEL ([10]; chronic, duration: 24 months, diet, M/F, Swiss-Webster, neurological): 100 mg/kg-day
- NOAEL ([10]; developmental, duration: 364 days, diet, M/F, Swiss-Webster, neurological): 26 mg/kg-day
- LOEL [11]: 50 mg/kg-day and 75 mg/kg-day
- NOAEL [12]: 30 mg/kg-day

Structure (SMILES): CCCCC(CC)COC(=O)c1ccccc1C(=O)OCC(CC)CCCC (stereo not given) [Di(2-ethylhexyl) phthalate]
- LOEL ([13]; Sprague-Dawley): 300 mg/kg-day and 100 mg/kg-day
- LOEL ([13]; Wistar): 300 mg/kg-day and 200 mg/kg-day
- NOEL ([13]; Wistar): 100 mg/kg-day
- LOEL ([14]; F1: AGD (mm)): 405 mg/kg-day
- NOEL ([14]; F1: AGD (mm)): 135 mg/kg-day
- NOEL ([14]; F1: Hypospadias (% litters affected) + F1: Hypospadias (litters affected incidence)): 405 mg/kg-day
- LOAEL [15]: 183 mg/kg-day
- NOAEL [15]: 18.3 mg/kg-day
- NOAEL [16]: 1.1 mg/kg-day
- LOAEL ([10]; developmental, duration: 20 days, gavage, F, CD1, developmental): 0.04 mg/kg-day
- LOAEL ([17]; developmental, duration: 9 weeks, inhalation, whole body, Wistar, developmental): 4.79 mg/m3
- LOAEL ([17]; developmental, duration: 12 days, oral, gavage, Wistar, developmental): 1 mg/kg-day
- LOAEL [18]: 19 mg/kg-day

Structure (SMILES): CCC(C)O (stereo not given) [2-Butanol]
- LD5 [19]: 657 mg/kg-day

Structure (SMILES): CC#N [Acetonitrile]
- NOAEL ([20]; Blood: Decreased hematocrit + Erythrocytes: Decreased cell count + Liver: Hepatic lesions): 168 mg/m3
- NOAEL ([20]; Liver: Increased relative weight): 168 mg/m3
- FEL [21]: 672 mg/m3
- NOAEL [22]: 336 mg/m3

Structure (SMILES): CN[C@@H]1[C@@H](O[C@H]2O[C@H](CO)[C@@H](N)[C@H](O)[C@H]2O)O[C@H]2C[C@@H](N)[C@@H](O[C@H]3[C@H](O)[C@@H](O)[C@H](N)C[C@@H]3N)O[C@@H]2[C@@H]1O [Apramycin]
- NOAEC [23]: 8.3 µg/mL

Structure (SMILES): O=Cc1ccco1 [Furfural]
- NOAEL [24]: 78.6 mg/m3
- LOAEL [25]: 7.9 mg/kg-day
- LOAEL ([3]; hepatocellular vacuolization): 11 mg/kg-day
- NOEL ([7]; duration: 13 weeks, Fischer 344, Deaths + Absolute Organ Weight: Kidney increase, Liver increase + Relative Organ Weight: Kidney increase, Liver increase + Histopathology: …): < 11 mg/kg-day

Structure (SMILES): O=[N+]([O-])c1ccccc1 [Nitrobenzene]
- LOAEL [26]: 25 mg/m3
- LOAEL ([17]; subchronic, duration: 90 days, inhalation, F344 / Sprague-Dawley, hematological): 25.2 mg/m3
- NOEL ([7]; Fischer 344, Deaths + Body Weight Changes: decrease + Food Consumption: decrease + Hematology: RBC decrease, WBC increase, , Hgb decrease, , Hct decrease…): < 5 mg/kg-day
- NOEL ([7]; Sprague-Dawley, Deaths + Clinical Observation: Piloerection, salivation, emacation Anemia, torticollis, rotating movement, abnormal gait + Body Weight …): < 20 mg/kg-day

Structure (SMILES): NC[C@@H]1O[C@H](O[C@H]2[C@@H](O)[C@H](O[C@@H]3[C@@H](O)[C@H](N)C[C@H](N)[C@H]3O[C@H]3O[C@H](CN)[C@@H](O)[C@H](O)[C@H]3N)O[C@@H]2CO)[C@H](N)[C@@H](O)[C@@H]1O [Neomycin]
- NOEL [27]: 6 mg/kg-day
